Data reported in the supplement of paper PMC4862054.

Legend:
Settings in all cases: incubation time: 72 h
[1] = tested on: CAL-120; experiment: normalised response (% of control), CellTiter-Glo; higher = more viable cells (100 = DMSO, 0 = benzethonium chloride kill control)
Outline: (§1)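 Every value is a normalised signal taken at one concentration of a dilution series. Compound was placed in 384-well plates at 5 concentrations in 10-fold steps over a compound-specific 10,000-fold range, and 20 µl of breast cancer cell suspension was seeded onto it. After 72 h, CellTox Green fluorescence (485/520 nm) was measured first and CellTiter-Glo luminescence second, following 10 min at room temperature. Each plate was scaled to 0.1 % DMSO (100) and a positive kill control (0).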

[2] = tested on: HDQ-P1; experiment: as above
Outline: as §1

[3] = tested on: CAL-85-1; experiment: as above
Outline: as §1

[4] = tested on: HCC1599; experiment: as above
Outline: as §1

[5] = tested on: MDA-MB-453; experiment: as above
Outline: as §1

[6] = tested on: MDA-MB-436; experiment: as above
Outline: as §1

[7] = tested on: BT-474; experiment: as above
Outline: as §1

[8] = tested on: MDA-MB-468; experiment: as above
Outline: as §1

[9] = tested on: SK-BR-3; experiment: as above
Outline: as §1

[10] = tested on: Hs578T; experiment: as above
Outline: as §1

[11] = tested on: CAL-148; experiment: as above
Outline: as §1

[12] = tested on: MDA-MB-231; experiment: as above
Outline: as §1

[13] = tested on: HCC1143; experiment: as above
Outline: as §1

[14] = tested on: HCC1937; experiment: as above
Outline: as §1

[15] = tested on: MFM-223; experiment: as above
Outline: as §1

[16] = tested on: MCF-10A; experiment: as above
Outline: as §1

[17] = tested on: BT-549; experiment: as above
Outline: as §1

[18] = tested on: CAL-51; experiment: as above
Outline: as §1

[19] = tested on: DU-4475; experiment: as above
Outline: as §1

[20] = tested on: CAL-120; experiment: normalised response (% of control), CellTox Green; higher = less cell death (100 = DMSO, 0 = benzethonium chloride kill control)
Outline: as §1

[21] = tested on: HDQ-P1; experiment: as above
Outline: as §1

[22] = tested on: CAL-85-1; experiment: as above
Outline: as §1

[23] = tested on: HCC1599; experiment: as above
Outline: as §1

[24] = tested on: MDA-MB-453; experiment: as above
Outline: as §1

[25] = tested on: MDA-MB-436; experiment: as above
Outline: as §1

[26] = tested on: BT-474; experiment: as above
Outline: as §1

[27] = tested on: MDA-MB-468; experiment: as above
Outline: as §1

[28] = tested on: Hs578T; experiment: as above
Outline: as §1

[29] = tested on: CAL-148; experiment: as above
Outline: as §1

[30] = tested on: MDA-MB-231; experiment: as above
Outline: as §1

[31] = tested on: HCC1143; experiment: as above
Outline: as §1

[32] = tested on: HCC1937; experiment: as above
Outline: as §1

[33] = tested on: MFM-223; experiment: as above
Outline: as §1

[34] = tested on: MCF-10A; experiment: as above
Outline: as §1

[35] = tested on: BT-549; experiment: as above
Outline: as §1

[36] = tested on: CAL-51; experiment: as above
Outline: as §1

[37] = tested on: DU-4475; experiment: as above
Outline: as §1

[38] = tested on: CAL-120; experiment: normalised response (% of control), CellTiter-Glo; higher = more viable cells (100 = DMSO, 0 = benzethonium chloride kill control); remark: listed apart in the source
Protocol: (§2)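 DSRT, 72 h incubation, CellTox Green / CellTiter-Glo readout. Signal is normalised to DMSO and benzethonium chloride controls. Value is the normalised response at dose 3.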

[39] = tested on: HDQ-P1; experiment: as above; remark: listed apart in the source
Protocol: as §2

[40] = tested on: CAL-85-1; experiment: as above; remark: listed apart in the source
Protocol: as §2

[41] = tested on: HCC1599; experiment: as above; remark: listed apart in the source
Protocol: as §2

[42] = tested on: MDA-MB-453; experiment: as above; remark: listed apart in the source
Protocol: as §2

[43] = tested on: MDA-MB-436; experiment: as above; remark: listed apart in the source
Protocol: as §2

[44] = tested on: BT-474; experiment: as above; remark: listed apart in the source
Protocol: as §2

[45] = tested on: SK-BR-3; experiment: as above; remark: listed apart in the source
Protocol: as §2

[46] = tested on: CAL-148; experiment: as above; remark: listed apart in the source
Protocol: as §2

[47] = tested on: MDA-MB-231; experiment: as above; remark: listed apart in the source
Protocol: as §2

[48] = tested on: HCC1143; experiment: as above; remark: listed apart in the source
Protocol: as §2

[49] = tested on: HCC1937; experiment: as above; remark: listed apart in the source
Protocol: as §2

[50] = tested on: MCF-10A; experiment: as above; remark: listed apart in the source
Protocol: as §2

[51] = tested on: BT-549; experiment: as above; remark: listed apart in the source
Protocol: as §2

[52] = tested on: DU-4475; experiment: as above; remark: listed apart in the source
Protocol: as §2

| SMILES | normalised response [1] | normalised response [2] | normalised response [3] | normalised response [20] | normalised response [21] | normalised response [22] | normalised response [23] | normalised response [24] | normalised response [25] | normalised response [26] | normalised response [27] | normalised response [28] | normalised response [29] | normalised response [30] | normalised response [31] | normalised response [33] | normalised response [34] | normalised response [35] | normalised response [36] | normalised response [37] | also measured |
| --- | --- | --- | --- | --- | --- | --- | --- | --- | --- | --- | --- | --- | --- | --- | --- | --- | --- | --- | --- | --- | --- |
| Cc1cccc(-c2nn3c(c2-c2ccnc4ccc(C(N)=O)cc24)CCC3)n1 [Galunisertib] (100 nM) | 104% | 101% | 104% | 101% | 70.6% | 102% | 109% | 114% | 105% | 102% | 170% | 87.6% | 108% | 120% | 112% | 98.5% | 59.8% | 121% | 112% | 107% | normalised response [4]: 109%; normalised response [5]: 105%; normalised response [6]: 110%; normalised response [7]: 104%; normalised response [8]: 107%; normalised response [9]: 105%; normalised response [10]: 91.6%; normalised response [11]: 101%; normalised response [12]: 108%; normalised response [13]: 109%; normalised response [14]: 104%; normalised response [15]: 107%; normalised response [16]: 109%; normalised response [17]: 94.3%; normalised response [18]: 88.5%; normalised response [19]: 104%; normalised response [32]: 93.8% |
| CS(=O)(=O)N1CCN(Cc2cc3nc(-c4cccc5[nH]ncc45)nc(N4CCOCC4)c3s2)CC1 [Pictilisib] (100 nM) | – | – | – | 102% | 107% | 107% | 108% | 104% | 107% | 98.8% | 143% | 109% | 92.1% | 92.3% | 110% | 105% | 106% | 101% | 103% | 101% | normalised response [38]: 89.6%; normalised response [39]: 82.4%; normalised response [40]: 106%; normalised response [41]: 93.6%; normalised response [42]: 88.5%; normalised response [43]: 92%; normalised response [44]: 86.9%; normalised response [45]: 74.1%; normalised response [46]: 98.4%; normalised response [47]: 86.2%; normalised response [48]: 91.7%; normalised response [49]: 94.7%; normalised response [50]: 84.8%; normalised response [51]: 86.7%; normalised response [52]: 92% |
| O=C(NC[C@H](O)CO)c1ccncc1Nc1ccc(I)cc1F [Pimasertib] (1000 nM) | 73.6% | 62.1% | 61.9% | 83.4% | 77.2% | 67.4% | 111% | 107% | 56.7% | 78.8% | 150% | 103% | 105% | 63.2% | 89.5% | 100% | 106% | 142% | 93.7% | 62.6% | normalised response [4]: 91.6%; normalised response [5]: 105%; normalised response [6]: 95.5%; normalised response [7]: 69.8%; normalised response [8]: 87.4%; normalised response [9]: 86.1%; normalised response [10]: 86.2%; normalised response [11]: 83.5%; normalised response [12]: 72.1%; normalised response [13]: 84.2%; normalised response [14]: 84.3%; normalised response [15]: 94%; normalised response [16]: 31.2%; normalised response [17]: 96.1%; normalised response [18]: 73%; normalised response [19]: 0.43%; normalised response [32]: 109% |
| Cn1cc(CNCC2CCN(c3ncc(C(=O)NO)cn3)CC2)c2ccccc21 [Quisinostat] (100 nM) | 44.5% | 58.4% | 29.5% | 34.5% | -19.4% | -5.42% | 86.8% | 89% | 87.5% | 45.6% | 43.3% | 38.8% | 23.7% | 29.6% | 86.2% | 72.8% | 97.8% | 92.3% | 58.5% | 82.1% | normalised response [4]: 42.1%; normalised response [5]: 2.02%; normalised response [6]: 55.3%; normalised response [7]: 25.3%; normalised response [8]: 34.5%; normalised response [9]: 14.9%; normalised response [10]: 37.2%; normalised response [11]: 8.89%; normalised response [12]: 30%; normalised response [13]: 25.4%; normalised response [14]: 64.7%; normalised response [15]: 52.5%; normalised response [16]: 51.6%; normalised response [17]: 46.1%; normalised response [18]: 40.5%; normalised response [19]: 23.2%; normalised response [32]: 80% |
